Numbers after ± are expanded uncertainties.
How the values were obtained:
[1] = 298.15 K; 101.33 kPa; Liquid
[2] = xn = mol fraction of the nth substance listed; settings: 298.15 K, 101 kPa, Liquid

CC(C)OC(C)C [diisopropyl ether]
Settings | mass density [kg/m3]
[1] | 719.17 ± 0.33

CC(C)OC(C)C [diisopropyl ether] + CCCO
[2]
Settings | mass density [kg/m3]
x1 = 0.0508 | 794.63 ± 0.29
x1 = 0.0999 | 789.64 ± 0.3
x1 = 0.2 | 779.84 ± 0.3
x1 = 0.2998 | 770.67 ± 0.31
x1 = 0.3993 | 762.07 ± 0.31
x1 = 0.4999 | 754.19 ± 0.32
x1 = 0.6006 | 746.71 ± 0.32
x1 = 0.7007 | 739.41 ± 0.32
x1 = 0.8001 | 732.66 ± 0.32
x1 = 0.9015 | 725.59 ± 0.33
x1 = 0.9514 | 722.22 ± 0.33

CC(C)OC(C)C [diisopropyl ether] + Cc1ccccc1
[2]
Settings | mass density [kg/m3]
x1 = 0.05 | 853.94 ± 0.27
x1 = 0.0995 | 845.89 ± 0.27
x1 = 0.2004 | 829.97 ± 0.28
x1 = 0.2999 | 814.46 ± 0.29
x1 = 0.4001 | 799.53 ± 0.3
x1 = 0.5003 | 784.92 ± 0.31
x1 = 0.6001 | 770.99 ± 0.31
x1 = 0.7004 | 757.31 ± 0.31
x1 = 0.8003 | 744.27 ± 0.32
x1 = 0.9003 | 731.28 ± 0.33
x1 = 0.9498 | 725.19 ± 0.33

CCCO [propan-1-ol]
Settings | mass density [kg/m3]
[1] | 800.61 ± 0.29

Cc1ccccc1 [toluene]
Settings | mass density [kg/m3]
[1] | 862.23 ± 0.27

Cc1ccccc1 [toluene] + CCCO
[2]
Settings | mass density [kg/m3]
x2 = 0.0491 | 859.7 ± 0.27
x2 = 0.0987 | 857.27 ± 0.27
x2 = 0.2003 | 852.39 ± 0.27
x2 = 0.2995 | 847.48 ± 0.27
x2 = 0.4006 | 842.21 ± 0.28
x2 = 0.5001 | 836.7 ± 0.28
x2 = 0.6001 | 830.71 ± 0.28
x2 = 0.7005 | 824.13 ± 0.28
x2 = 0.8001 | 817.01 ± 0.29
x2 = 0.9006 | 809.12 ± 0.29
x2 = 0.9497 | 805 ± 0.29

— the NIST ThermoML archive (doi:10.1016/j.fluid.2008.06.019)
